{"source": "patent US10165777B2", "about": "“Substituted pyrazolylpyrazole derivative and use of same as herbicide” (KYOYU AGRI CO., LTD., priority 2015, dated 2019)", "type_in_all_cases": "in vivo", "key": {"Scirpus juncoides": {"test_system": "Scirpus juncoides", "assay": "Paddy herbicidal activity test", "details": "irrigated pot, 30 days", "experimental": "(§1) 1. Paddy Herbicidal Activity Test Rice paddy soil was filled into a 1/10000 are pot followed by the addition of suitable amounts of water and chemical fertilizer, kneading, seeding with Echinochloa crus-galli, Monochoria vaginalis and Scirpus juncoides and maintaining in an irrigated state at a water depth of 3 cm. Wettable powders of Target Compound (I) shown in Table 1 prepared in compliance with the preparation examples were diluted with a suitable amount of water, rice plants in the 2.0 leaf stage were transplanted during 3.5 leaf stage of Echinochloa crus-galli, and treated by dropping in chemical in the prescribed amount per 10 are using a pipette. After treating for 30 days in a glass greenhouse at an average atmospheric temperature of 30° C., the herbicidal efficacy thereof was investigated. Evaluation of herbicidal efficacy was carried out by comparing growth inhibition rate (%) with an untreated group, while evaluation of phytotoxicity was carried out by comparing growth inhibition rate (%) with the state of a complete eradication group, and were evaluated at 11 levels indicated below."}, "Echinochloa crus-galli": {"test_system": "Echinochloa crus-galli", "assay": "Paddy herbicidal activity test", "details": "irrigated pot, treated at 3.5 leaf stage of Echinochloa crus-galli, 30 days", "experimental": "as §1"}, "Monochoria vaginalis": {"test_system": "Monochoria vaginalis", "assay": "Paddy herbicidal activity test", "details": "irrigated pot, 30 days", "experimental": "as §1"}, "Digitaria ciliaris [1]": {"test_system": "Digitaria ciliaris", "assay": "Weed foliar treatment test (Test 3, 1.0 to 2.0 leaf stage)", "details": "foliar spray at 1.0 to 2.0 leaf stage of Digitaria ciliaris, 3 weeks", "experimental": "(§2) Soil was filled into a 1/6000 are pot followed by seeding with Digitaria ciliaris, Chenopodium album and Amaranthus retroflexus, covering with soil, and cultivating in a glass greenhouse at an average atmospheric temperature of 25° C. Wettable powders of Target Compound (I) shown in Table 1 prepared in compliance with the preparation examples were diluted with water to the prescribed amount of chemical and uniformly sprayed onto the weeds using 150 liters of sprayed water per 10 are when Digitaria ciliaris had grown to the 1.0 to 2.0 leaf stage. After treating for 3 weeks in a glass greenhouse at an average atmospheric temperature of 25° C., the herbicidal efficacy thereof was investigated. Evaluation of herbicidal efficacy was carried out in the same manner as the above-mentioned Test Example 1."}, "Amaranthus retroflexus [2]": {"test_system": "Amaranthus retroflexus", "assay": "Weed foliar treatment test (Test 3, 1.0 to 2.0 leaf stage)", "details": "foliar spray at 1.0 to 2.0 leaf stage of Digitaria ciliaris, 3 weeks", "experimental": "as §2"}, "Chenopodium album [3]": {"test_system": "Chenopodium album", "assay": "Weed foliar treatment test (Test 3, 1.0 to 2.0 leaf stage)", "details": "foliar spray at 1.0 to 2.0 leaf stage of Digitaria ciliaris, 3 weeks", "experimental": "as §2"}, "Digitaria ciliaris [4]": {"test_system": "Digitaria ciliaris", "assay": "Farming soil treatment test", "details": "soil surface spray prior to weed growth, 30 days", "experimental": "(§3) Field soil was filled into a 1/6000 are pot followed by seeding with Digitaria ciliaris, Chenopodium album and Amaranthus retroflexus and covering with soil. Wettable powders of compounds of formula (I) shown in Table 1 prepared in compliance with the preparation examples were diluted with water to the prescribed amount of chemical and uniformly sprayed onto each soil surface layer using 100 liters of sprayed water per 10 are prior to weed growth following seeding. After treating for 30 days in a glass greenhouse at an average atmospheric temperature of 30° C., the herbicidal efficacy thereof was investigated. Evaluation of herbicidal efficacy was carried out in the same manner as the above-mentioned Test Example 1."}, "Amaranthus retroflexus [5]": {"test_system": "Amaranthus retroflexus", "assay": "Farming soil treatment test", "details": "soil surface spray prior to weed growth, 30 days", "experimental": "as §3"}, "Chenopodium album [6]": {"test_system": "Chenopodium album", "assay": "Farming soil treatment test", "details": "soil surface spray prior to weed growth, 30 days", "experimental": "as §3"}, "Oryza sativa": {"test_system": "Oryza sativa", "assay": "Paddy herbicidal activity test, phytotoxicity to transplanted rice", "details": "rice transplanted in 2.0 leaf stage, 30 days", "experimental": "as §1"}, "Galinsoga parviflora": {"test_system": "Galinsoga parviflora", "assay": "Weed foliar treatment test (Test 4, 4.0 to 5.0 leaf stage)", "details": "10 g a.i./10 a; foliar spray at 4.0 to 5.0 leaf stage of Digitaria ciliaris; 20 days", "experimental": "(§4) Field soil was filled into a 1/4500 are pot followed by seeding with Digitaria ciliaris and Galinsoga parviflora, covering with soil and cultivating in a glass greenhouse at an average atmospheric temperature of 25° C.\n(§5) Wettable powders of Target Compound (I) shown in Table 1 prepared in compliance with the preparation examples were diluted with water to the prescribed amount of chemical and uniformly sprayed onto the weeds using 100 liters of sprayed water per 10 are when Digitaria ciliaris had grown to the 4.0 to 5.0 leaf stage (plant height: 10 cm to 15 cm).\n(§6) After treating for 20 days in a glass greenhouse at an average atmospheric temperature of 25° C., the herbicidal efficacy thereof was investigated.\n(§7) Evaluation of herbicidal efficacy was carried out in the same manner as the above-mentioned Test Example 1."}, "Digitaria ciliaris [7]": {"test_system": "Digitaria ciliaris", "assay": "Weed foliar treatment test (Test 4, 4.0 to 5.0 leaf stage)", "details": "10 g a.i./10 a; foliar spray at 4.0 to 5.0 leaf stage of Digitaria ciliaris (plant height 10 cm to 15 cm); 20 days", "experimental": "as §4, §5, §6, §7"}}, "data": [{"smiles": "COC=Nc1c(C#N)cnn1-c1nn2c(c1Cl)CCCC2", "note": "[Compound 33]", "values": [{"measurement": "herbicidal efficacy, Scirpus juncoides", "setting": "Scirpus juncoides; 1 g a.i./10 a", "value": "9 (90% to less than 100%)"}, {"measurement": "herbicidal efficacy, Scirpus juncoides", "setting": "Scirpus juncoides; 5 g a.i./10 a", "value": "9 (90% to less than 100%)"}, {"measurement": "herbicidal efficacy, Echinochloa crus-galli", "setting": "Echinochloa crus-galli; 1 g a.i./10 a", "value": "9 (90% to less than 100%)"}, {"measurement": "herbicidal efficacy, Echinochloa crus-galli", "setting": "Echinochloa crus-galli; 5 g a.i./10 a", "value": "9 (90% to less than 100%)"}, {"measurement": "herbicidal efficacy, Monochoria vaginalis", "setting": "Monochoria vaginalis; 1 g a.i./10 a", "value": "9 (90% to less than 100%)"}, {"measurement": "herbicidal efficacy, Monochoria vaginalis", "setting": "Monochoria vaginalis; 5 g a.i./10 a", "value": "10 (100%)"}, {"measurement": "herbicidal efficacy, Digitaria ciliaris", "setting": "Digitaria ciliaris [1]; 5 g a.i./10 a", "value": "9 (90% to less than 100%)"}, {"measurement": "herbicidal efficacy, Digitaria ciliaris", "setting": "Digitaria ciliaris [1]; 10 g a.i./10 a", "value": "9 (90% to less than 100%)"}, {"measurement": "herbicidal efficacy, Amaranthus retroflexus", "setting": "Amaranthus retroflexus [2]; 5 g a.i./10 a", "value": "9 (90% to less than 100%)"}, {"measurement": "herbicidal efficacy, Amaranthus retroflexus", "setting": "Amaranthus retroflexus [2]; 10 g a.i./10 a", "value": "9 (90% to less than 100%)"}, {"measurement": "herbicidal efficacy, Chenopodium album", "setting": "Chenopodium album [3]; 5 g a.i./10 a", "value": "10 (100%)"}, {"measurement": "herbicidal efficacy, Chenopodium album", "setting": "Chenopodium album [3]; 10 g a.i./10 a", "value": "10 (100%)"}, {"measurement": "herbicidal efficacy, Digitaria ciliaris", "setting": "Digitaria ciliaris [4]; 5 g a.i./10 a", "value": "9 (90% to less than 100%)"}, {"measurement": "herbicidal efficacy, Digitaria ciliaris", "setting": "Digitaria ciliaris [4]; 10 g a.i./10 a", "value": "9 (90% to less than 100%)"}, {"measurement": "herbicidal efficacy, Amaranthus retroflexus", "setting": "Amaranthus retroflexus [5]; 5 g a.i./10 a", "value": "9 (90% to less than 100%)"}, {"measurement": "herbicidal efficacy, Amaranthus retroflexus", "setting": "Amaranthus retroflexus [5]; 10 g a.i./10 a", "value": "9 (90% to less than 100%)"}, {"measurement": "herbicidal efficacy, Chenopodium album", "setting": "Chenopodium album [6]; 5 g a.i./10 a", "value": "9 (90% to less than 100%)"}, {"measurement": "herbicidal efficacy, Chenopodium album", "setting": "Chenopodium album [6]; 10 g a.i./10 a", "value": "9 (90% to less than 100%)"}, {"measurement": "phytotoxicity, Oryza sativa", "setting": "Oryza sativa; 1 g a.i./10 a", "value": "0 (0% to less than 10% (growth inhibition rate))"}, {"measurement": "phytotoxicity, Oryza sativa", "setting": "Oryza sativa; 5 g a.i./10 a", "value": "1 (10% to less than 20%)"}, {"measurement": "herbicidal efficacy, Galinsoga parviflora", "setting": "Galinsoga parviflora", "value": "10 (100%)"}, {"measurement": "herbicidal efficacy, Digitaria ciliaris", "setting": "Digitaria ciliaris [7]", "value": "9 (90% to less than 100%)"}]}]}
